From patent publication US20210300943A1, “OGA INHIBITOR COMPOUNDS” (Janssen Pharmaceutica NV, priority 2018, published 2021)

Assays:
OGA = target: T1, OGA (Homo sapiens, UniProt O60502); experiment: OGA cellular assay (ICC detection of O-GlcNAcylated proteins in HEK293 cells inducible for P301L mutant human Tau); type: cell-based; details: for Emax: HEK293, HEK293 cells inducible for P301L mutant human Tau, maximal effect, Thiamet G 200 uM as maximum; for EC50: HEK293 cells inducible for P301L mutant human Tau, 6 hours incubation, read-out: Cellular hOGA, pEC50 (converted)
T1 construct: endogenous in cells; host or cells: HEK293 cells inducible for P301L mutant human Tau (2N4R)
T1 sequence (O60502 1-916): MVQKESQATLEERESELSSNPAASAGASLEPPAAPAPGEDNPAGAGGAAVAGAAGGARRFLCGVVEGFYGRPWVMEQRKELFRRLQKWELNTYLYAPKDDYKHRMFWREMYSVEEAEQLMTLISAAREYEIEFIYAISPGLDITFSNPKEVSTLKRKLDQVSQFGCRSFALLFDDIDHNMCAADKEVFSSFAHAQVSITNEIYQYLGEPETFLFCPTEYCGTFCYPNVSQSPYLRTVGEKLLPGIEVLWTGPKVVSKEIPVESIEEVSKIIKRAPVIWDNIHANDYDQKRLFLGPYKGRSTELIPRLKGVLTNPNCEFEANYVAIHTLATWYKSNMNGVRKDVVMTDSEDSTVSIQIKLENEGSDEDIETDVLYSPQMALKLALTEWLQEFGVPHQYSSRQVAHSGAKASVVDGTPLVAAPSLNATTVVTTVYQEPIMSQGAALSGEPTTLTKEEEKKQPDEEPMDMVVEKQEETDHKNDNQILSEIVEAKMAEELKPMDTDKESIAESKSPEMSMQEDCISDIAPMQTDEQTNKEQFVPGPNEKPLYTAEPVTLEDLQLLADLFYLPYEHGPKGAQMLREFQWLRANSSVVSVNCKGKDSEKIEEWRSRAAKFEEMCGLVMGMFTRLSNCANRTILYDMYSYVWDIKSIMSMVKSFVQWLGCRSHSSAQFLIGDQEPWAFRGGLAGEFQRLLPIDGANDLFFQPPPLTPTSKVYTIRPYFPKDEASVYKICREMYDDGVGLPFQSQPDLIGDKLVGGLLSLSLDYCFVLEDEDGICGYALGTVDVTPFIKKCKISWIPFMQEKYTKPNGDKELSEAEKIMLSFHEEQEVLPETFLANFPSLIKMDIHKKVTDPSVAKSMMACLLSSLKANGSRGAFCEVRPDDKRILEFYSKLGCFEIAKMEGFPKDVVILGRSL
Method: HEK293 cells inducible for P301L mutant human Tau (isoform 2N4R) were established at Janssen. Thiamet-G was used for both plate validation (high control) and as reference compound (reference EC50 assay validation). OGA inhibition is evaluated through the immunocytochemical (ICC) detection of O-GlcNAcylated proteins by the use of a monoclonal antibody (CTD110.6; Cell Signaling, #9875) detecting 0-GlcNAcylated residues as previously described (Dorfmueller et al. 2010 Chemistry & biology, 17:1250). Inhibition of OGA will result in an increase of O-GlcNAcylated protein levels resulting in an increased signal in the experiment. Cell nuclei are stained with Hoechst to give a cell culture quality control and a rough estimate of immediate compounds toxicity, if any. ICC pictures are imaged with a Perkin Elmer Opera Phenix plate microscope and quantified with the provided software Perkin Elmer Harmony 4.1.
Cells were propagated in DMEM high Glucose (Sigma, #D5796) following standard procedures. 2 days before the cell assay cells are split, counted and seeded in Poly-D-Lysine (PDL) coated 96-wells (Greiner, #655946) plate at a cell density of 12,000 cells per cm^2 (4,000 cells per well) in 100 μl of Assay Medium (Low Glucose medium is used to reduce basal levels of GlcNAcylation) (Park et al. 2014 The Journal of biological chemistry 289:13519). At the day of compound test medium from assay plates was removed and replenished with 90 μl of fresh Assay Medium. 10 μl of compounds at a 10 fold final concentration were added to the wells. Plates were centrifuged shortly before incubation in the cell incubator for 6 hours. DMSO concentration was set to 0.2%. Medium is discarded by applying vacuum. For staining of cells medium was removed and cells washed once with 100 μl D-PBS (Sigma, #D8537). From next step onwards unless other stated assay volume was always 50 μl and incubation was performed without agitation and at room temperature. Cells were fixed in 50 μl of a 4% paraformaldehyde (PFA, Alpha aesar, #043368) PBS solution for 15 minutes at room temperature. […] Before analysis samples were washed 2 times manually for 5 minutes in ICC base buffer.
Imaging is performed using Perkin Elmer Phenix Opera using a water 20× objective and recording 9 fields per well. Intensity readout at 488 nm is used as a measure of O-GlcNAcylation level of total proteins in wells. To assess potential toxicity of compounds nuclei were counted using the Hoechst staining. IC50-values are calculated using parametric non-linear regression model fitting. As a maximum inhibition Thiamet G at a 200 uM concentration is present on each plate. In addition, a concentration response of Thiamet G is calculated on each plate.

[1] = target: T2, recombinant human Meningioma Expressed Antigen 5 (MGEA5), also referred to as O-GlcNAcase (OGA) (Homo sapiens, UniProt O60502); experiment: OGA biochemical assay (inhibition of FM-GlcNAc hydrolysis, fluorescence); details: for Emax: maximal effect, read-out: Enzymatic Emax (%); for IC50: read-out: Enzymatic hOGA, pIC50 (converted)
T2 construct: Full length OGA enzyme was purchased at OnGene (cat #TP322411); purchased OnGene (so in the source)
T2 sequence (O60502 1-916): T1 sequence (O60502 1-916)
Excerpt: The assay is based on the inhibition of the hydrolysis of fluorescein mono-β-D-N-Acetyl-Glucosamine (FM-GlcNAc) (Mariappa et al. 2015, Biochem J 470:255) by the recombinant human Meningioma Expressed Antigen 5 (MGEA5), also referred to as O-GlcNAcase (OGA). The hydrolysis FM-GlcNAc (Marker Gene technologies, cat #M1485) results in the formation of β-D-N-glucosamineacetate and fluorescein. The fluorescence of the latter can be measured at excitation wavelength 485 nm and emission wavelength 538 nm. An increase in enzyme activity results in an increase in fluorescence signal. Full length OGA enzyme was purchased at OnGene (cat #TP322411). The enzyme was stored in 25 mM Tris.HCl, pH 7.3, 100 mM glycine, 10% glycerol at −20° C. Thiamet G and GlcNAcStatin were tested as reference compounds (Yuzwa et al. 2008 Nature Chemical Biology 4:483; Yuzwa et al. 2012 Nature Chemical Biology 8:393). The assay was performed in 200 mM Citrate/phosphate buffer supplemented with 0.005% Tween-20. 35.6 g Na2HPO42H2O (Sigma, #C0759) were dissolved in 1 L water to obtain a 200 mM solution. 19.2 g citric acid (Merck, #1.06580) was dissolved in 1 L water to obtain a 100 mM solution. pH of the sodiumphosphate solution was adjusted with the citric acid solution to 7.2. The buffer to stop the reaction consists of a 500 mM Carbonate buffer, pH 11.0. 734 mg FM-GlcNAc were dissolved in 5.48 mL DMSO to obtain a 250 mM solution and was stored at −20° C. OGA was used at a 2 nM concentration and FM-GlcNAc at a 100 uM final concentration. Dilutions were prepared in assay buffer.
50 nl of a compound dissolved in DMSO was dispensed on Black Proxiplate TM 384 Plus Assay plates (Perkin Elmer, #6008269) and 3 μl fl-OGA enzyme mix added subsequently. Plates were pre-incubated for 60 min at room temperature and then 2 μl FM-GlcNAc substrate mix added. […] Plates were briefly centrifuged for 1 min at 1000 rpm and incubate at room temperature for 6 h. To stop the reaction 5 μl STOP buffer were added and plates centrifuge again 1 min at 1000 rpm. Fluorescence was quantified in the Thermo Scientific Fluoroskan Ascent or the PerkinElmer EnVision with excitation wavelength 485 nm and emission wavelength 538 nm.
For analysis a best-fit curve is fitted by a minimum sum of squares method. From this an IC50 value and Hill coefficient was obtained. High control (no inhibitor) and low control (saturating concentrations of standard inhibitor) were used to define the minimum and maximum values.

Row | Compound | Emax (OGA) [%] | EC50 (OGA) [nM] | Emax [1] [%] | IC50 [1] [nM]
1 | Cc1cc(OC[C@H]2CCCN(C(C)c3ccc4c(n3)OCCO4)C2)cc(C)n1 (mixture of isomers) [Product 19] | 86 | 31.6 | 102 | 7.94
2 | Cc1cc(C[C@H]2CCCN(C(C)c3ccc4c(c3)OCC4)C2)cc(C)n1 (mixture of isomers) [Product 47] | 81 | 15.8 | 103 | 3.98
3 | Cc1cc(C[C@H]2CCCN(C(C)c3cnc4c(c3)OCCN4C)C2)cc(C)n1 (mixture of isomers) [Product 56] | 78 | 316 | 102 | 15.8
4 | Cc1cc(C[C@H]2CCCN(C(C)c3ccc4c(n3)OCC(=O)N4)C2)cc(C)n1 (mixture of isomers) [Product 59] | 23 | > 1000 | 102 | 126
5 | Cc1cc(C[C@H]2CCCN(C(C)c3ccc4c(n3)OCCO4)C2)cc(OC(F)(F)F)n1 (mixture of isomers) [Product 67] | 89 | 79.4 | 102 | 7.94
6 | Cc1cc(C[C@H]2CCCN(C(C)c3cc4c(cc3F)OCCO4)C2)cc(C(F)(F)F)n1 (mixture of isomers) [Product 68] | 79 | 39.8 | 102 | 6.31
7 | Cc1cc(C[C@H]2CCCN(C(C)c3ccc4c(n3)OCCO4)C2)cc(C(F)(F)F)n1 (mixture of isomers) [Product 69] | 90 | 50.1 | 102 | 12.6
8 | Cc1cc(CO[C@H]2CCCN([C@H](C)c3ccc4c(n3)OCCO4)C2)cc(C)n1 (mixture of isomers) [Product 111] | 29 | 316 | 98 | 12.6
9 | Cc1cc(CO[C@@H]2CCCN([C@H](C)c3ccc4c(n3)OCCO4)C2)cc(C)n1 (mixture of isomers) [Product 112] | 8 | > 1000 | 98 | 200
10 | Cc1cc(C2CCCN([C@H](C)c3ccc4c(n3)OCCO4)C2)nc(C)n1 (mixture of isomers) [Product 113] | 55 | 794 | 100 | 100
11 | Cc1cc(OC[C@H]2CCCN([C@H](C)c3ccc4c(n3)OCCO4)C2)nc(C)n1 (mixture of isomers) [Product 114] | 66 | 158 | 100 | 15.8
12 | Cc1cc(C[C@H]2CCCN(C(C)c3cc4c(cc3F)OCCO4)C2)cc(C)n1 (mixture of isomers) [Product 40] | 96 | 15.8 | 101 | 2
13 | Cc1cc(OC[C@H]2CCCN(C(C)c3nc4c(cc3F)CCO4)C2)cc(C)n1 (mixture of isomers) [Product 178] | 104 | 2.51 | 95 | 2.51

The remaining lines, values ahead:

Row | Emax (OGA) [%] | EC50 (OGA) [nM] | Emax [1] [%] | IC50 [1] [nM] | Compound
14 |  | > 1000 | 103 | 126 | Cc1cc(C[C@H]2CCCN(C(C)c3ccc4c(c3)OCCN4C)C2)cc(C)n1 (mixture of isomers) [Product 49]
15 | 78 | 158 | 101 | 12.6 | Cc1cc(C[C@H]2CCCN(C(C)c3cnc4c(c3)OCC4)C2)cc(C)n1 (mixture of isomers) [Product 57]
16 | 69 | 31.6 | 101 | 7.94 | COc1cc(C[C@H]2CCCN(C(C)c3ccc4c(n3)OCCO4)C2)cc(C)n1 (mixture of isomers) [Product 63]
17 | 70 | 20 | 103 | 5.01 | Cc1cc([C@H]2CCCN([C@@H](C)c3ccc4c(c3)OCC4)C2)cc(C)n1 (racemic) [Product 4]
18 | 69 | 7.94 | 102 | 7.94 | COc1cc(NC[C@H]2CCCN(C(C)c3ccc4c(n3)OCCO4)C2)cc(C)n1 (mixture of isomers) [Product 24]
19 | 91 | 20 | 101 | 3.16 | Cc1cc(C[C@H]2CCCN(C(C)c3ccc4c(n3)OCCO4)C2)cc(C)n1 (mixture of isomers) [Product 44]
20 | 85 | 39.8 | 103 | 10 | Cc1cc(C[C@H]2CCCN(C(C)c3cnc4c(c3)OCCN4)C2)cc(C)n1 (mixture of isomers) [Product 50]
21 | 68 | 316 | 102 | 12.6 | COc1cc(OC[C@H]2CCCN([C@H](C)c3ccc4c(n3)OCCO4)C2)cc(C)n1 (racemic) [Product 110]
